Data taken from US12419832B2, “Intratumoral delivery of bortezomib” (Cognos Therapeutics, Inc., priority 2018, dated 2025).
“Also recorded” adds a separate entry of the source. Where two headings read alike, the source gives them in different places.

Columns and labels:
[1] = tested on: malignant gliomas / GBM; settings: cited from earlier work
[2] = Dose escalation, intracerebral osmotic mini-pump, normal nontumor-bearing mice
Experimental: The doses of bortezomib used in these experiments were determined by injecting escalating doses of the drug intracerebrally (delivered by osmotic mini-pump) into normal, nontumor-bearing mice. […] In FIG. 4, treatment groups (n=6) were vehicle (saline-filled pump); bortezomib given IV (36 μg in total); bortezomib IT (low dose, 0.36 μg); bortezomib IT (medium dose, 1.2 μg); and bortezomib IT (high dose, 3.6 μg).

[3] = tested on: U251 glioma cells implanted intracranially; assay: Orthotopic intracranial glioma model, U251, survival; format: in vivo, athymic nude mice; settings: for median survival time: IT pump, control 23 days
Experimental: (§1) FIGS. 3A-3B. […] Human glioma cells U251 (FIG. 3A) or U87 (FIG. 3B) were implanted intracranially; subsequently, mice were given bortezomib (36 μg total) (square) or vehicle (circle) IV. The brain tumor size was monitored by optical imaging weekly, and animal survival data were analyzed by Kaplan-Meier plot.
FIG. 4. Bortezomib (BZM) administered intratumorally (IT) is effective in increasing survival. Glioma cells (U251) were implanted intracranially. After 10 days, animals were treated IT with vehicle; bortezomib IV (36 μg total); bortezomib IT (low dose, 0.36 μg total); bortezomib IT (medium dose, 1.2 μg total); and bortezomib IT (high dose, 3.6 μg total). […] CED=convection-enhanced delivery.
(§2) Briefly, athymic nude mice were anesthetized with ketamine and xylazine (10 mg/kg) and fixed into a stereotactic head frame (Harvard Apparatus). A 1.5-mm bur hole was drilled 1 mm anterior to the coronal suture on the right hemisphere and 2 mm lateral from the midline. A Hamilton syringe fixed onto the head frame was used to inject human glioma cells (2×10^5 cells/5 μl) into the right frontal lobe of the brain. The skin incision was then closed with 4-0 silk thread. The appropriate medications were provided to reduce pain.
Seven to 10 days after tumor cell implantation, imaging was used to confirm brain tumor formation. Briefly, mice were anesthetized using 2% isoflurane gas and injected intravenously (IV) with 50 mg/kg of D-Luciferin (Perkin Elmer) and placed into the IVIS Spectrum (Caliper Life Sciences). Analysis was performed with Living Image software (Caliper Life Sciences), in which circular regions of interest drawn over the tumor site were used, and results were reported as total flux (photons/second). Based on total flux, animals were randomly divided into experimental groups.
Once tumors were identified, approximately 7 days after intracranial tumor cell implantation, Alzet mini-osmotic pumps were filled with the desired dose of reagent and implanted. A plastic tube primed with the agent was used to connect the infusion kit to the brain. The assembled delivery system was stored at 4° C. overnight before implantation. Bortezomib was delivered into the tumor using the Alzet mini-osmotic pumps.
To anchor the pump to the animal, an incision was made in the scalp alongside the previous surgical scar. The caudal edge of the incision was pulled, and the connective tissues were separated. Subsequently a subcutaneous tunnel was prepared. The Alzet mini-osmotic pump was pushed backward to adjust the location of the brain infusion kit directly above the hole in the skull that had been previously drilled for tumor cell implantation. The infusion kit (plastic tubing) was gently inserted into the formed tumor. The plastic platform end was fixed onto the skull by using instant super glue. The area around the skin incision was sterilized and sutured with 4-0 silk thread. The contents of the Alzet mini-osmotic pump were released into the tumor at a rate of […]. The treatment groups (6 mice per group) were listed as the following: 1) pump-administered vehicle (saline); 2) bortezomib (0.3 mg/kg=36 μg in total) given by intravenous injection; 3) low-dose bortezomib (0.003 mg/kg=0.36 μg in total) intracranial pump delivery; 4) medium-dose bortezomib (0.01 mg/kg=1.2 μg in total) intracranial pump delivery; and 5) high-dose bortezomib (0.03 mg/kg=3.6 μg in total) intracranial pump delivery. In summary, bortezomib was administered for 14 days, either IV at 0.3 mg/kg twice weekly (total 4 injections in 14 days), or continuously into the intracranial tumor bed by using the Alzet mini-osmotic pump. After the treatment was completed (14 days), animals were left untreated until the appearance of neurological and behavioral abnormalities requiring euthanasia. Animals treated with vehicle received saline by Alzet mini-osmotic pump.
Survival data were plotted using the Kaplan-Meier method. […]

[4] = tested on: 20S proteasome; assay: 20S proteasome activity assay on lysates of tumor-bearing brains; format: in vivo, mice; settings: IT 3.6 μg total, Alzet pump
Experimental: FIG. 5. […] Animals were treated by intratumorally administration of bortezomib (3.6 μg total) using the Alzet pump. After 5, 7 or 10 days, animals were euthanized, tumor-bearing brains were harvested, and lysates prepared for the proteasome activity assay. Control values were obtained from vehicle-treated brains at 5, 7, and 10 days.
Brain lysates were prepared by homogenization of tumor-bearing brains in phosphate-buffered saline. Supernatants were collected by centrifugation at 12,000 rpm for 15 minutes at 4° C. Total protein concentration was measured by the BCA protein assay, and 100 μg of total protein was used to measure proteasome activity. The 20S proteasome assay kit (EMD Millipore) was used according to manufacturer's instructions. The assay is based on detection of fluorophore 7-amino-4-methylcoumarin (AMC) after cleavage from the labeled substrate LLVYAMC. The free AMC fluorescence was quantified using 380-nm excitation and 460-nm emission filters.

[5] = tested on: U87 glioma cells implanted subcutaneously; assay: Subcutaneous glioma xenograft tumor model, U87; format: in vivo, athymic nude mice; settings: 0.3 mg/kg (36 μg total), vs vehicle
Experimental: (§3) FIGS. 2A-2B. […] FIG. 2A: Glioma cells (U251) were implanted subcutaneously into athymic nu/nu mice. Fourteen days later, intravenous treatment was initiated: vehicle treatment (circle); bortezomib (36 μg total) (square). Subsequently animals were left untreated for 14 days. […] FIG. 2B: Glioma cells (U87) were implanted subcutaneously in athymic nude mice. Bortezomib was administered at a total dose of 36 μg by intravenous injection beginning on Day 30 post-implantation.
(§4) The animal protocol was approved by the institutional animal care and use committee of the University of Southern California. All mice were maintained in a pathogen-free environment throughout the experiment. For the subcutaneous tumor xenograft model, 5×10^5 human glioma cells (U87, U251, and LN229) suspended in a volume of 50 μl phosphate-buffered saline were implanted into the right flank of 30 athymic nude mice (Harlan, Inc.). Tumors were palpable approximately 2-3 weeks post-implantation. The animals were divided randomly into 5 groups of 6 mice, and treatment was initiated according to protocol.

[6] = tested on: U87 glioma cells implanted intracranially; assay: Orthotopic intracranial glioma model, U87, survival; format: in vivo, athymic nude mice; settings: IV 36 μg total
Experimental: as §1, §2
Seven to 10 days after tumor cell implantation, imaging was used to confirm brain tumor formation. Briefly, mice were anesthetized using 2% isoflurane gas and injected intravenously (IV) with 50 mg/kg of D-Luciferin (Perkin Elmer) and placed into the IVIS Spectrum (Caliper Life Sciences). Analysis was performed with Living Image software (Caliper Life Sciences), in which circular regions of interest drawn over the tumor site were used, and results were reported as total flux (photons/second). […]

[7] = tested on: U251 glioma cells implanted subcutaneously; assay: Subcutaneous glioma xenograft tumor model, U251; format: in vivo, athymic nu/nu mice; settings: IV 0.3 mg/kg twice per week (36 μg total), vs vehicle
Experimental: as §3, §4

[8] = tested on: glioma stem cells and normal stem cells; settings: cited from earlier work
[9] = tested on: intracranial glioma tumor; assay: Histological investigation of tumor-bearing brains (H & E, TRA 1-85); format: in vivo, mice
Experimental: FIG. 6. […] Tumor-bearing animals were treated with intratumoral-administered bortezomib (A) or IV-administered-bortezomib (B). After 5 days the animals were euthanized, brains harvested, and stained with hematoxylin/eosin.
Tissues used for histological investigation were fixed in 10% formalin, embedded in paraffin, and stained with H & E. The antibody TRA-1-85/CD147 (RD Systems) was used to stain for human cells.

[10] = tested on: human glioma cells (U251, LN229, U87); assay: MTT cytotoxicity assay on glioma cells; format: cell-based; settings: Glioma cell, 3 cell lines (U251, LN229, U87), 48 hours, read-out: median inhibitory concentrations (IC50)
Experimental: Glioma cells (U251, LN229, U87) were treated with bortezomib (0-25 nM) for 48 hours. Cell death was evaluated using the MTT assay. O.D.=optical density.
Human glioma cells (U87, U251, and LN229) were cultured in DMEM, supplemented with 10% fetal bovine serum and 1% penicillin-streptomycin, and incubated in 5% CO2. Bortezomib (Velcade) was purchased from the University of Southern California/Norris Comprehensive Cancer Center pharmacy. Bortezomib has been approved by the FDA for clinical use. The sterile 14-day Alzet mini-osmotic pump (model 2002) was used in these experiments. The Alzet mini-osmotic pump has a reservoir volume of 200 μl and a delivery rate of 0.5 μl/hour. The brain infusion kit, which includes the pump and distribution tubing, was purchased from DURECT Corporation.
Glioma cells (5000 cells/well) were seeded in 96-well plates. After 24 hours, bortezomib was added to the cells at different concentrations, and the cells were incubated for 48 hours. The monotetrazolium (MTT) assay was performed according to the manufacturer's protocol (Calbiochem EMD, Millipore). Absorbance was measured using a microtiter plate reader (Molecular Devices) at 490 nm. Percent viability was calculated relative to untreated control cells. All experiments were performed in triplicate.

CC(C)C[C@H](NC(=O)[C@H](Cc1ccccc1)NC(=O)c1cnccn1)B(O)O [bortezomib, [(1R)-3-methyl-1-[[(2S)-3-phenyl-2-(pyrazine-2-carbonylamino)propanoyl]amino]butyl]boronic acid]
therapeutic benefit, Phase II trial ([1]; combination with tamoxifen, systemic, patients with malignant gliomas): no therapeutic benefit
benefit, Phase II clinical trial ([1]; combination with vorinostat, bortezomib IV, GBM): no benefit
toxicity ([2]; 7.2 μg): toxic and fatal
toxicity ([2]; 18.0 μg): toxic and fatal
toxicity ([2]; 36.0 μg): toxic and fatal
increase in survival ([3]; IT administration, median survival 23 to 37 days): approximately 40%
survival, IT vs IV (36 μg) ([3]; U251 intracranial, IT high dose 3.6 μg total, p=0.0022): significantly enhanced survival
survival, IT vs IV (36 μg) ([3]; U251 intracranial, IT low dose 0.36 μg total, p=0.1104): not significant
survival, IT vs IV (36 μg) ([3]; U251 intracranial, IT medium dose 1.2 μg total, p=0.0005): significantly enhanced survival
median survival time ([3]; U251 intracranial, high dose 3.6 μg total): 37 days
median survival time ([3]; U251 intracranial, medium dose 1.2 μg total): 34 days
survival vs vehicle ([3]; U251 intracranial, IV 0.3 mg/kg (36 μg total), 0.3 mg/kg): no significant differences in survival time; also recorded: not significant
proteasome activity in tumor-bearing brain vs vehicle ([4]; 5 days, p=0.03): significantly reduced proteasome activity
proteasome activity in tumor-bearing brain vs vehicle ([4]; 7 days, p=0.03): significantly reduced proteasome activity
proteasome activity in tumor-bearing brain vs vehicle ([4]; 10 days, p=0.0048): significantly reduced proteasome activity
tumor growth rate / tumor progression [5]: delayed tumor progression
tumor growth rate / tumor progression ([5]; listed as Bortezomib): significantly (p=0.041) decreased tumor growth rate
survival vs vehicle [6]: no significant differences
tumor growth rate [7]: significantly effective in delaying tumor growth
tumor growth rate ([7]; listed as Bortezomib): significantly (p=0.0145) decreased tumor growth rate
cytotoxicity ([8]; glioma stem cells): cytotoxic
cytotoxicity ([8]; normal stem cells): not toxic
tumor size (surface area), IV-treated animal relative to intratumoral-treated animal ([9]; Day 5, IV 36 μg total vs IT 3.6 μg total, H & E): approximately ten-fold larger
tumor cell invasion into mouse brain, IV-treatment compared to IT-treated ([9]; anti-human antibody TRA 1-85 staining): greater tumor cell invasion
microvessel densities vs vehicle-treated mice ([9]; data not shown): not significantly different
IC50 [10]: 5 to 10 nM
